According to patent publication US10766884B2 (Pfizer Inc., priority 2018, dated 2020):

What was measured:
[1] = biological target: CDK6 (Homo sapiens (Human), UniProt Q00534); experiment: Phospho-Serine 795 Rb ELISA assay in MV4-11 cells; type: cell-based; details: overnight treatment, phospho-Rb S795, read-out: CDK6 pRB S795 ELISA MV4-11 cells IC50
[2] = biological target: CDK6/Cyclin D3 (Homo sapiens (Human), UniProt Q00534); experiment: CDK6/Cyclin D3 mobility shift assay; type: biochemical; details: activated CDK6/Cyclin D3, 3.5 mM ATP, Morrison fit; read-out: CDK6_D3 Ki
CDK6/Cyclin D3, sequence (Q00534 whole entry): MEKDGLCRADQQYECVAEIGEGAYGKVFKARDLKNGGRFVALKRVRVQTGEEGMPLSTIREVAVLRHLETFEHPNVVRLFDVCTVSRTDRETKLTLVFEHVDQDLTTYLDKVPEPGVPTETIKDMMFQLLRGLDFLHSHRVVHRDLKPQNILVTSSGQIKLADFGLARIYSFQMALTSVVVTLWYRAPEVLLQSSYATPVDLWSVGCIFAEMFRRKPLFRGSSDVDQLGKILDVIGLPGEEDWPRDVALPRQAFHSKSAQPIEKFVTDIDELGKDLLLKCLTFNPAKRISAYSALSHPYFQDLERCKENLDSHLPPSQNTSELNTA
CDK6/Cyclin D3, sequence (P30281 whole entry partner): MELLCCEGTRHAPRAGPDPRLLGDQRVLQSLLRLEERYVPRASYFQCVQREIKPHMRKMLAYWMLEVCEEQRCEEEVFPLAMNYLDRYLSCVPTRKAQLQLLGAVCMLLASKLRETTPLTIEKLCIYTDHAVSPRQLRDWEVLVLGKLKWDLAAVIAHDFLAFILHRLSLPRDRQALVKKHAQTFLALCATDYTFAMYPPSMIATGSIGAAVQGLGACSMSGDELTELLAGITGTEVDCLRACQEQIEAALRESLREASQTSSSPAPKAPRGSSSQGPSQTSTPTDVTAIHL

[3] = biological target: CDK4/Cyclin D1 (Homo sapiens (Human), UniProt P11802); experiment: CDK4/Cyclin D1 mobility shift assay; type: biochemical; details: activated CDK4/Cyclin D1, 3.5 mM ATP, Morrison fit; read-out: CDK4D1 Ki
CDK4/Cyclin D1, sequence (P11802 whole entry): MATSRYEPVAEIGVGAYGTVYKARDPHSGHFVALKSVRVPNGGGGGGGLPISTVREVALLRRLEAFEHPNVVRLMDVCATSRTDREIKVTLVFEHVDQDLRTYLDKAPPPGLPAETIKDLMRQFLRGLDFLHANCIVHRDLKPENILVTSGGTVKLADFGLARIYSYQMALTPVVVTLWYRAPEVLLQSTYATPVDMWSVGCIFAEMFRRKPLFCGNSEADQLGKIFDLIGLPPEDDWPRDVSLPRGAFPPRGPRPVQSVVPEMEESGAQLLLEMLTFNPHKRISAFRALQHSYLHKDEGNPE
CDK4/Cyclin D1, sequence (P24385 whole entry partner): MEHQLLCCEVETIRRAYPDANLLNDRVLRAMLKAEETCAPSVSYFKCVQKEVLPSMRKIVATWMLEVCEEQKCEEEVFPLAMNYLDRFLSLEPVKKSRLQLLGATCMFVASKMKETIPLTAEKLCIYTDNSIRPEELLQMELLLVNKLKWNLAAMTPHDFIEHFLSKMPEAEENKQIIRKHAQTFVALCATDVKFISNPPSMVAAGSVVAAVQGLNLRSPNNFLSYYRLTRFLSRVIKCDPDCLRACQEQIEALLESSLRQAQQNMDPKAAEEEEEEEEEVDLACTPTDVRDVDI

[4] = biological target: CDK4 (Homo sapiens (Human), UniProt P11802); experiment: Phospho-Serine 795 Rb ELISA assay in JEKO-1 cells; type: cell-based; details: overnight treatment, phospho-Rb S795, read-out: CDK4 pRB S795 ELISA JEKO-1 cells IC50
CDK4, sequence (P11802 2-303): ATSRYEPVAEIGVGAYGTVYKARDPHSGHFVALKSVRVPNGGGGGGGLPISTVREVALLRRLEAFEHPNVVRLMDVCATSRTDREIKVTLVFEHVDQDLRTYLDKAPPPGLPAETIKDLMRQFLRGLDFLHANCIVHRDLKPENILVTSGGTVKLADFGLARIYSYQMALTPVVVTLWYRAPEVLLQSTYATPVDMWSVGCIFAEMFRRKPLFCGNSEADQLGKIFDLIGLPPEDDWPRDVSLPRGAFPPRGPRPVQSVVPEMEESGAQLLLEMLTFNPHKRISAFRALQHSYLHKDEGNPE
CDK4, sequence (P24385 whole entry partner): as the sequence (P24385 whole entry partner) above

CDK6, sequence (Q00534 whole entry): as the sequence (Q00534 whole entry) above
CDK6, sequence (P30281 whole entry partner): as the sequence (P30281 whole entry partner) above

SMILES	IC50 [1] [µM]	Ki [2] [µM]	Ki [3] [µM]	IC50 [4] [µM]
CC(=O)N1CC[C@@H](Nc2ncc(F)c(-c3cc(F)c4nc(C)n(C(C)C)c4c3)n2)[C@H](O)C1 [Example F16, 1-[(3R,4R)-4-({5-fluoro-4-[4-fluoro-2-methyl-1-(propan-2-yl)-1H-benzimidazol-6-yl]pyrimidin-2-yl}amino)-3-hydroxypiperidin-1-yl]ethan-1-one]	0.363	0.026	0.0014	0.675
Cc1nc2c(F)cc(-c3nc(N[C@@H]4CCN(C(=O)CO)C[C@H]4O)ncc3F)cc2n1C(C)C [Example F17, 1-[(3R,4R)-4-({5-fluoro-4-[4-fluoro-2-methyl-1-(propan-2-yl)-1H-benzimidazol-6-yl]pyrimidin-2-yl}amino)-3-hydroxypiperidin-1-yl]-2-hydroxyethan-1-one]	0.127	0.0083	0.0005	0.0832
CC(C)n1cnc2c(Cl)cc(-c3nc(N[C@@H]4CCN(C(=O)[C@@H](C)O)C[C@H]4O)ncc3Cl)cc21 [Example F20, (2R)-1-[(3R,4R)-4-({5-chloro-4-[4-chloro-1-(propan-2-yl)-1H-benzimidazol-6-yl]pyrimidin-2-yl}amino)-3-hydroxypiperidin-1-yl]-2-hydroxypropan-1-one]	0.787	0.0243	0.002	0.155
C[C@H](O)C(=O)N1CC[C@@H](Nc2ncc(Cl)c(-c3cc(F)c4ncn(C(C)(C)C)c4c3)n2)[C@H](O)C1 [Example F21, (2S)-1-[(3R,4R)-4-{[4-(1-tert-butyl-4-fluoro-1H-benzimidazol-6-yl)-5-chloropyrimidin-2-yl]amino}-3-hydroxypiperidin-1-yl]-2-hydroxypropan-1-one]	0.246	0.0077	0.0004	0.0595
CC(C)(C)n1cnc2ccc(-c3cc(N[C@@H]4CCN(C(=O)CO)C[C@H]4O)ncc3Cl)nc21 [Example F22, 1-[(3R,4R)-4-{[4-(3-tert-butyl-3H-imidazo[4,5-b]pyridin-5-yl)-5-chloropyridin-2-yl]amino}-3-hydroxypiperidin-1-yl]-2-hydroxyethan-1-one]	0.171	0.0091	0.0005	0.0613
CNCC(=O)N1CC[C@@H](Nc2ncc(F)c(-c3cc(F)c4nc(C)n(C(C)C)c4c3)n2)[C@H](O)C1 [Example F23, 1-[(3R,4R)-4-({5-fluoro-4-[4-fluoro-2-methyl-1-(propan-2-yl)-1H-benzimidazol-6-yl]pyrimidin-2-yl}amino)-3-hydroxypiperidin-1-yl]-2-(methylamino)ethan-1-one]	1.32	0.011	0.001	0.692
CNCC(=O)N1CC[C@@H](Nc2ncc(Cl)c(-c3cc(F)c4ncn(C(C)(C)C)c4c3)n2)[C@H](O)C1 [Example F25, 1-[(3R,4R)-4-{[4-(1-tert-butyl-4-fluoro-1H-benzimidazol-6-yl)-5-chloropyrimidin-2-yl]amino}-3-hydroxypiperidin-1-yl]-2-(methylamino)ethan-1-one]	0.455	0.0193	0.0012	0.455
CC(C)(C)n1cnc2c(F)cc(-c3nc(N[C@@H]4CCN(C(=O)C5(F)CNC5)C[C@H]4O)ncc3Cl)cc21 [Example F26, [(3R,4R)-4-{[4-(1-tert-butyl-4-fluoro-1H-benzimidazol-6-yl)-5-chloropyrimidin-2-yl]amino}-3-hydroxypiperidin-1-yl](3-fluoroazetidin-3-yl)methanone]	0.182	0.0046	0.0001	0.143
CC(C)n1cnc2c(F)cc(-c3nc(N[C@@H]4CCN(C(=O)C5(F)CNC5)C[C@H]4O)ncc3Cl)cc21 [Example F27, [(3R,4R)-4-({5-chloro-4-[4-fluoro-1-(propan-2-yl)-1H-benzimidazol-6-yl]pyrimidin-2-yl}amino)-3-hydroxypiperidin-1-yl](3-fluoroazetidin-3-yl)methanone]	0.188	0.0051	0.0005	0.0608
CC(C)n1cnc2c(F)cc(-c3nc(N[C@@H]4CCN(C(=O)C5(N)CC5)C[C@H]4O)ncc3Cl)cc21 [Example F28, (1-aminocyclopropyl)[(3R,4R)-4-({5-chloro-4-[4-fluoro-1-(propan-2-yl)-1H-benzimidazol-6-yl]pyrimidin-2-yl}amino)-3-hydroxypiperidin-1-yl]methanone]	0.745	0.0223	0.0022	0.191
CC(C)n1cnc2c(F)cc(-c3nc(N[C@@H]4CCN(C(=O)C5(N)CC(F)(F)C5)C[C@H]4O)ncc3Cl)cc21 [Example F29, (1-amino-3,3-difluorocyclobutyl)[(3R,4R)-4-({5-chloro-4-[4-fluoro-1-(propan-2-yl)-1H-benzimidazol-6-yl]pyrimidin-2-yl}amino)-3-hydroxypiperidin-1-yl]methanone]	0.644	0.0233	0.0018	0.246
CC(C)(C)n1cnc2c(F)cc(-c3nc(N[C@@H]4CCN(C(=O)C5(N)CC(F)(F)C5)C[C@H]4O)ncc3Cl)cc21 [Example F30, (1-amino-3,3-difluorocyclobutyl)[(3R,4R)-4-{[4-(1-tert-butyl-4-fluoro-1H-benzimidazol-6-yl)-5-chloropyrimidin-2-yl]amino}-3-hydroxypiperidin-1-yl]methanone]	0.377	0.0125	0.0005	0.0661
CC(C)(C)n1cnc2c(F)cc(-c3cc(N[C@@H]4CCN(C(=O)C(F)(F)CN)C[C@H]4O)ncc3Cl)cc21 [Example F32, 3-amino-1-[(3R,4R)-4-{[4-(1-tert-butyl-4-fluoro-1H-benzimidazol-6-yl)-5-chloropyridin-2-yl]amino}-3-hydroxypiperidin-1-yl]-2,2-difluoropropan-1-one]	0.628	0.0128	0.0009	0.172
CNC(=O)CN1CC[C@@H](Nc2cc(-c3ccc4ncn(C(C)(C)C)c4n3)c(Cl)cn2)[C@H](O)C1 [Example F33, 2-[(3R,4R)-4-{[4-(3-tert-butyl-3H-imidazo[4,5-b]pyridin-5-yl)-5-chloropyridin-2-yl]amino}-3-hydroxypiperidin-1-yl]-N-methylacetamide]	0.113	0.0052	0.0002	0.0246
CC(C)n1c(CN2CC(C)(O)C2)nc2c(F)cc(-c3nc(N[C@@H]4CCOC[C@H]4O)ncc3Cl)cc21 [Example H01, 1,5-anhydro-3-[(5-chloro-4-{4-fluoro-2-[(3-hydroxy-3-methylazetidin-1-yl)methyl]-1-(propan-2-yl)-1H-benzimidazol-6-yl}pyrimidin-2-yl)amino]-2,3-dideoxy-D-threo-pentitol]	0.858	0.127	0.0024	0.137
CC(C)n1c(CN(C)C)nc2c(F)cc(-c3nc(N[C@@H]4CCOC[C@H]4O)ncc3Cl)cc21 [Example H02, 1,5-anhydro-3-[(5-chloro-4-{2-[(dimethylamino)methyl]-4-fluoro-1-(propan-2-yl)-1H-benzimidazol-6-yl}pyrimidin-2-yl)amino]-2,3-dideoxy-D-threo-pentitol]	0.118	0.02	0.0008	0.0521
CC(C)n1c(CN2CC(O)C2)nc2c(F)cc(-c3nc(N[C@@H]4CCOC[C@H]4O)ncc3Cl)cc21 [Example H03, 1,5-anhydro-3-[(5-chloro-4-{4-fluoro-2-[(3-hydroxyazetidin-1-yl)methyl]-1-(propan-2-yl)-1H-benzimidazol-6-yl}pyrimidin-2-yl)amino]-2,3-dideoxy-D-threo-pentitol]	0.423	0.0669	0.0018	0.155
CC(C)n1c(CN2C[C@@](C)(O)[C@@H]2C)nc2c(F)cc(-c3nc(N[C@@H]4CCOC[C@H]4O)ncc3Cl)cc21 [Example H04, 1,5-anhydro-3-({5-chloro-4-[4-fluoro-2-{[(2S,3R)-3-hydroxy-2,3-dimethylazetidin-1-yl]methyl}-1-(propan-2-yl)-1H-benzimidazol-6-yl]pyrimidin-2-yl}amino)-2,3-dideoxy-D-threo-pentitol]	0.221	0.0382	0.0008	0.0634
CC(C)n1c(CNC2COC2)nc2c(F)cc(-c3nc(N[C@@H]4CCOC[C@H]4O)ncc3Cl)cc21 [Example H05, 1,5-anhydro-3-({5-chloro-4-[4-fluoro-2-{[(oxetan-3-yl)amino]methyl}-1-(propan-2-yl)-1H-benzimidazol-6-yl]pyrimidin-2-yl}amino)-2,3-dideoxy-D-threo-pentitol]	1.47	0.0933	0.0045	0.249
CC(C)n1c(CN2CC(F)C2)nc2c(F)cc(-c3nc(N[C@@H]4CCOC[C@H]4O)ncc3Cl)cc21 [Example H06, 1,5-anhydro-3-[(5-chloro-4-{4-fluoro-2-[(3-fluoroazetidin-1-yl)methyl]-1-(propan-2-yl)-1H-benzimidazol-6-yl}pyrimidin-2-yl)amino]-2,3-dideoxy-D-threo-pentitol]	0.343	0.0356	0.0011	0.0796
CC(C)n1c(CN2CCC2)nc2c(F)cc(-c3nc(N[C@@H]4CCOC[C@H]4O)ncc3Cl)cc21 [Example H07, 1,5-anhydro-3-[(4-{2-[(azetidin-1-yl)methyl]-4-fluoro-1-(propan-2-yl)-1H-benzimidazol-6-yl}-5-chloropyrimidin-2-yl)amino]-2,3-dideoxy-D-threo-pentitol]	0.409	0.043	0.0014	0.0483
